The test system of this assay is serum testosterone. The assay is described as follows: Testosterone suppression in rats after injection of leuprolide acetate self-encapsulated PLGA microspheres. The class given is in vivo, male Sprague-Dawley rats. The following applies: for testosterone suppression: result in words. As for the experimental part:
Evaluation of testosterone suppression in rats following injection of leuprolide acetate self-encapsulated PLGA microspheres: The ability of PLGA self-healing microencapsulation to provide long-term in vivo release was evaluated by assessing long-term testosterone suppression after a single injection of leuprolide acetate self-encapsulated PLGA microspheres in male Sprague-Dawley rats (S5-S8). The treatment of experimental animals was in accordance with University committee on use and care of animals (University of Michigan UCUCA), and all NIH guidelines for the care and use of laboratory animals. Male Sprague-Dawley rats of 6 weeks old were housed in cages and given free access to standard laboratory food and water, and allowed one week to acclimate prior to study initiation. Animals were anesthetized with 2-4% isoflurane administered by a calibrated vaporizer (Midmark, Orchard Park, N.Y., USA). The leuprolide acetate self-encapsulated PLGA microspheres (1×2-month dose), leuprolide acetate solution (1×1-month dose), and blank SM PLGA microspheres without drug (1× dose) in a liquid vehicle (1% w/v carboxymethylcellulose and 2% w/v mannitol), and commercial 1-month Lupron Depot (Abbott Laboratories, North Chicago, Ill., USA) (2× dosing at days 0 and 28) were subcutaneously injected at the back (lower neck portion) of rats (6 animals/study group). […]
PLGA self-healing microencapsulation provides long-term delivery of bioactive large molecules in vivo—Long-term testosterone suppression in rats after single injection of leuprolide acetate self-encapsulated PLGA microspheres: Leuprolide acetate (Mw=1209.6 Da) is commonly used in the treatment of hormone-dependent cancers (e.g., prostate cancer) and gynecologic disorders (e.g., endometriosis and precocious puberty). […] The ability of PLGA self-healing microencapsulation to provide long-term in vivo release was evaluated by assessing long-term testosterone suppression in male Sprague-Dawley rats (six rats/study group) in comparison with commercial Lupron Depot™ and negative controls (FIG. 2C). […]

Each structure is given as a SMILES string.

Turning to `CCNC(=O)[C@@H]1CCCN1C(=O)[C@H](CCCNC(=N)N)NC(=O)[C@H](CC(C)C)NC(=O)[C@@H](CC(C)C)NC(=O)[C@H](Cc1ccc(O)cc1)NC(=O)[C@H](CO)NC(=O)[C@H](Cc1c[nH]c2ccccc12)NC(=O)[C@H](Cc1c[nH]cn1)NC(=O)[C@@H]1CCC(=O)N1` [leuprolide solution, Leuprolide acetate], the testosterone suppression result is given as “failed to provide testosterone suppression below the castration level”. For the setting “one day after subcutaneous injection”, this compound returned a serum testosterone level of about 5 ng/mL. Besides, under “listed as solution leuprolide”, the testosterone suppression entry was “ineffective to suppress testosterone”.

(Values after patent US10220001B2, “Active self-healing biomaterial system” (The Regents of the University of Michigan, priority 2010, dated 2019).)
